The nature of the data set: Adverse reactions (NCI-CTC Version 2.0), maximum tolerated and recommended dose of CPT-11. Type of data set: in vivo, human patients. The conditions noted are these: with TS-1 80 mg/m^2/day and radiation 45 Gy. As to the method:
A Phase I/II clinical study of preoperative chemoradiotherapy with TS-1/CPT-11 was conducted to estimate the maximum tolerated dose (MTD) and recommended dose (RD) of CPT-11. The subjects had cancer of the rectum (excluding the rectosigmoid (Rs)) with a preoperative diagnosis of T3′ (tumors showing invasion through the muscularis propria into the subserosa, or into the nonperitonealized pericolic or perirectal tissues) or T4′ (tumors perforating the visceral peritoneum and/or directly invading other organs or structures), and N0 to N3′. Response rates and safety (percentage of adverse reactions and percentage of complications) were also evaluated with RD administration. (2) Subject selection
Level 1 (CPT-11, 40 mg/m^2) was the starting dose, and dose was titrated until the maximum tolerated dose could be estimated. […]
After the level of the maximum tolerated dose was confirmed, the recommended dose was determined by reducing the 10 mg/m^2 (one level) increments.
Maximum tolerated dose was determined on the basis of the adverse reactions observed during the first week after completing chemotherapy. (Maximum tolerated dose was evaluated in the modality of coadministration with radiation.)
Side effects were evaluated according to the National Cancer Institute Common Toxicity Criteria (Version 2.0; NCI-CTC). Effects not on the NCI-CTC form were scored on the following five-grade scale.

These results are taken from patent publication US20070036717A1, “Chemoradiotherapy with TS-1/camptothecins” (The Kitasato Gakuen Foundation, priority 2005, published 2007).

Counter-ions that a name gives are not always drawn.

Turning to `CCc1c2c(nc3ccc(OC(=O)N4CCC(N5CCCCC5)CC4)cc13)-c1cc3c(c(=O)n1C2)COC(=O)[C@]3(O)CC` [CPT-11, (4S)-4a, 11-diethyl-4β-hydroxy-9-[[4-(piperidin-1-yl)piperidin-1-yl]carbonyloxy]1H-pyrano[3′,4′:6,7]indolizino[1,2-b]quinoline-3,14-(4H,12H)dione hydrochloride salt], the “final recommended dose of CPT-11” value is reported as 80 mg/m^2.
